Read-outs that look alike come from different tables or passages of the source. *1 amine or outer side, *2 acyl side, *3 side chain or, on linkers, in order; H or OH if unused. Where a SMILES comes first, the peptide text is derived from it. Bridges are numbered along the chain shown (N, C = ends). [ ]: non-standard residue; d: D form. The star is where a group is joined. X1 = N=c1ccc2c(-c3ccccc3C(=O)*)c3ccc(N)c(S(=O)(=O)O)c3oc-2c1S(=O)(=O)O; NMeGABA = CN(CCCC(=O)[*:2])[*:1]

The source of these data is PMC11674118, “New High-Affinity Peptide Ligands for Kv1.2 Channel: Selective Blockers and Fluorescent Probes” (Cells, 2024).

Assay [1] addresses T1, Kv1.3 channel (K-Kv1.3) (Homo sapiens, UniProt P22001).
T1 construct: expressed in transfected cells; host or cells: Neuro2a cells; tracer A-HgTx bought from Smartox Biotechnology
Conditions: cited from earlier work. How it is done: (§1) Previously, labeling of HgTx1 with fluorophores Cy3, Cy5, Alexa 488, Alexa 546, Alexa 594, Alexa 660, and Alexa 680 was performed at the cysteine residue introduced instead of alanine 19 [23].

Assay [2] has as its target Kv1.1 channel (K-Kv1.1). The following applies: cited from earlier work. As to the method:
as §1

Assay [3] deals with T2, human Kv1.2 channel, mKate2-Kv1.2(S371T, N469L) (K-Kv1.2m2) (Homo sapiens, UniProt P16389, N469L/S371T).
T2 construct: expressed in transfected cells; host or cells: mouse neuroblastoma Neuro2a cells, transient transfection with pmKate2-KCNA2m1m2
Nature of the assay: Binding of fluorescent ligand to K-Kv1.2m2 on living Neuro2a cells (confocal microscopy, Rav titration). How it is done:
(§2) Cellular organelles were stained as described earlier. To analyze the binding of Kv1.2 with fluorescent ligands, A-HgTx (0.06–2 nM) or HgTx-G (0.06–0.5 nM) was added to cells in a complete medium for 90–120 min. To analyze competitive binding, HgTx-G (0.5 nM) was added to cells together with the studied peptide (0.1–0.8 nM HgTx1; 0.05–0.8 nM MgTx; 5–20 nM ChTx; 50–400 nM AgTx2; 0.05–0.2 nM Ce1; 0.2–5 nM Ce4) in a complete medium for 90–120 min.
(§3) Microscopy was carried out using an SP2 confocal microscope with an HCX PL APO 63×/1.2 objective (Leica Microsystems GmbH, Wetzlar, Germany). The size of the confocal diaphragm corresponded to 1 Airy disk. Typical voxel size was 0.06 × 0.06 × 0.9 µm except for serial ligand binding experiments, where its size was 0.23 × 0.23 × 0.9 µm. […]
(§4) Quantitative analysis of the interaction of fluorescent ligands with Kv1.2 was carried out using Image J software (version 1.48, National Institute of Health, Bethesda, MD, USA) as described earlier. This analysis was based on calculating the ratio of the fluorescent intensities of the bound ligand to the channel (Ri) in each selected region of interest on the plasma membrane for the confocal images of 20–25 measured cells, followed by calculating the average value (Rav) and standard deviation. […]

For assay [4], the target named is T3, human Kv1.2 channel, mKate2-Kv1.2(S371T) (K-Kv1.2) (Homo sapiens, UniProt P16389, S371T).
T3 construct: expressed in transfected cells; host or cells: mouse neuroblastoma Neuro2a cells, transient transfection with pmKate2-KCNA2m1
Nature of the assay: Binding of fluorescent ligands to K-Kv1.2 on living Neuro2a cells (confocal microscopy, Rav titration). The following applies: concentration dependence of binding. How it is done:
as §2, §3, §4

Assay [5] addresses T4, human Kv1.2 channel (K-Kv1.2) (Homo sapiens, UniProt P16389, S371T).
T4 construct: expressed in transfected cells; host or cells: mouse neuroblastoma Neuro2a cells, transient transfection with pmKate2-KCNA2m1; tracer HgTx-G made in E. coli Rosetta-gami(DE3)pLysS
The experiment in a line: Competitive displacement of HgTx-G from complexes with K-Kv1.2 on Neuro2a cells. In kind it is binding. Conditions: displacement of HgTx-G (0.5 nM), 90-120 min, Cheng-Prusoff, triplicate, mean ± SD, read-out: apparent dissociation constant (Kap), Kv1.2. How it is done:
as §2
Quantitative analysis of the interaction of fluorescent ligands with Kv1.2 was carried out using Image J software (version 1.48, National Institute of Health, Bethesda, MD, USA) as described earlier. This analysis was based on calculating the ratio of the fluorescent intensities of the bound ligand to the channel (Ri) in each selected region of interest on the plasma membrane for the confocal images of 20–25 measured cells, followed by calculating the average value (Rav) and standard deviation.
The peptide concentration (DC50) displacing 50% of the fluorescent ligand from the complex with Kv1.2 was estimated by the dependence of Rav on the concentration (C) of the added peptide at the fixed concentration of the fluorescent ligand:Rav(C)/Rav0 = 1/(1 + C/DC50)(2) […]
The apparent dissociation constant (Kap) of the complex between Kv1.2 and the studied peptide was calculated using the Cheng–Prusoff equation:Kap = DC50/(1 + L/Kd)(3) […]

Assay [6] relates to human Kv1.2 channels. The following applies: patch-clamp, mammalian cells; read-out: 50% decrease of current, human Kv1.2; cited from earlier work. The text has this: (§5) Kap of MgTx in our experiments is consistent with the last value.
(In general: Patch clamp records ionic current or voltage across a cell membrane.)

For assay [7], the system named is Kv1.2 channels. Conditions: mammalian cells with depolarized membranes; read-out: 50% inhibition of the Rb+ flux through Kv1.2; cited from earlier work.
Excerpt: as §5

Assay [8] deals with Kv1.1 channel (K-Kv1.1). The following applies: similar analytical system, read-out: Kap, Kv1.1; cited from earlier work. The source says: Table 2 Sequences of Ce1, Ce4, HgTx1, and MgTx peptides and dissociation constants (Kap, nM) of their complexes with Kv1.2, Kv1.1, and Kv1.3 channels. | column: Kap, nM

T2 sequence (P16389 whole entry S371T/N469L): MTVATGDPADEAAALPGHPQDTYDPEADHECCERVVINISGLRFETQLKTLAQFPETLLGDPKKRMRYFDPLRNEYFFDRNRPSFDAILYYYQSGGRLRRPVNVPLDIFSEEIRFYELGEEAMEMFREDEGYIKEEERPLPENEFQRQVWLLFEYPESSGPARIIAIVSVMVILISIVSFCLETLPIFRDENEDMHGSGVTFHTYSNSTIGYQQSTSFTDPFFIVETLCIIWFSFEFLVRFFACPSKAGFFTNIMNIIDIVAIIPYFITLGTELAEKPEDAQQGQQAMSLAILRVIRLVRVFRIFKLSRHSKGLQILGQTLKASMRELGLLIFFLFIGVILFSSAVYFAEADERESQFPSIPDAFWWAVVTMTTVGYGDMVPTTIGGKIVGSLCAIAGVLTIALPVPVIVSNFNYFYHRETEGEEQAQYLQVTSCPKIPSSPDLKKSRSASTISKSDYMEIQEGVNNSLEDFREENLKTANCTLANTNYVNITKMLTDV
T1 sequence (P22001 whole entry): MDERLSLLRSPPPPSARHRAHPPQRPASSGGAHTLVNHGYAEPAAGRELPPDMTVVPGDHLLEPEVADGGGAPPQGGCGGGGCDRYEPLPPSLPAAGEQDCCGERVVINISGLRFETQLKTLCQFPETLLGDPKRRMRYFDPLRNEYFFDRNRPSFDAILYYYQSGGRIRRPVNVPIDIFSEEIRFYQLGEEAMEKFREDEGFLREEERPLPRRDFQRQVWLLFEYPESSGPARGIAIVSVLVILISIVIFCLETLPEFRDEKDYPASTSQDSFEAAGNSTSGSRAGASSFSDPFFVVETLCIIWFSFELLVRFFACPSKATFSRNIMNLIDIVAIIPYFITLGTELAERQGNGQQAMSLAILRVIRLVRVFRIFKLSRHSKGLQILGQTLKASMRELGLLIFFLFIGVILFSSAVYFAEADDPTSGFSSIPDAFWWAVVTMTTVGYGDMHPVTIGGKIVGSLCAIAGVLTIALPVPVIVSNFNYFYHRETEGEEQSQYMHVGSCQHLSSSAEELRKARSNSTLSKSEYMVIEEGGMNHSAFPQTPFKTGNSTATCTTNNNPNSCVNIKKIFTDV
T4 sequence (P16389 whole entry S371T): as the sequence (P16389 whole entry S371T/N469L) above, with L469N counted along it
T3 sequence (P16389 whole entry S371T): as the sequence (P16389 whole entry S371T/N469L) above, with L469N counted along it

As for `CC[C@H](C)[C@@H]1NC(=O)CNC(=O)[C@H](Cc2ccccc2)NC(=O)[C@H](CCC(N)=O)NC(=O)[C@H](C)NC(=O)[C@H](CCCCN)NC(=O)[C@@H]2CSSC[C@@H](C(=O)N[C@@H](Cc3ccc(O)cc3)C(=O)N3CCC[C@H]3C(=O)N[C@@H](Cc3c[nH]cn3)C(=O)O)NC(=O)[C@H](CCCCN)NC(=O)[C@@H]3CSSC[C@H](NC(=O)[C@H](CCC(N)=O)NC(=O)[C@H](CCCCN)NC(=O)[C@@H]4CCCN4C(=O)[C@H](CO)NC(=O)[C@H]([C@@H](C)O)NC(=O)[C@@H](NC(=O)[C@H](CCCCN)NC(=O)[C@@H](NC(=O)[C@H](CC(=O)O)NC(=O)[C@@H](NC(=O)[C@@H](NC(=O)[C@@H](NC(=O)CCCN(C)C(=O)c4ccccc4-c4c5ccc(=N)c(S(=O)(=O)O)c-5oc5c(S(=O)(=O)O)c(N)ccc45)[C@@H](C)O)C(C)C)[C@@H](C)CC)C(C)C)CSSC[C@H](NC(=O)[C@H](CCCCN)NC(=O)[C@H](C)NC(=O)CNC(=O)[C@H](C)NC(=O)[C@H](CCCNC(=N)N)NC1=O)C(=O)N[C@@H](CCSC)C(=O)N[C@@H](CC(N)=O)C(=O)NCC(=O)N[C@@H](CCCCN)C(=O)N3)C(=O)N[C@@H](CC(C)C)C(=O)N1CCC[C@H]1C(=O)N1CCC[C@H]1C(=O)N2` [A-HgTx] (X1-[NMeGABA]TVIDVKCTSPKQCLPPCKAQFGIRAGAKCMNGKCKCYPH-OH; disulfide 8-30, 14-35, 18-37; C-terminus assumed), the Kd in assay [1] was 300 ± 130 pM; in assay [2] it was 700 ± 200 pM; in assay [3] (living Neuro2a cells, complete medium, confocal microscopy, triplicate, mean ± SD, SD, read-out: dissociation constant (Kd) of the complex with K-Kv1.2m2), 80 ± 20 pM. In assay [3] (concentration dependence of binding, Neuro2a cells), the “binding saturation concentration, K-Kv1.2m2” value is reported as ~ 0.5 nM. The “binding saturation concentration, K-Kv1.2” value in assay [4] is ~ 0.5 nM.

On to `CC[C@H](C)[C@@H]1NC(=O)[C@@H]2CSSC[C@@H]3NC(=O)[C@H](CCCCN)NC(=O)[C@H](CCCNC(=N)N)NC(=O)[C@H](CC(N)=O)NC(=O)[C@H](CCSC)NC(=O)[C@H](CSSC[C@H](NC(=O)[C@H](CO)NC(=O)[C@@H](NC(=O)[C@H](CC(N)=O)NC(=O)[C@@H](NC(=O)[C@@H]4CCCN4C(=O)[C@@H](NC(=O)CN)C(C)C)[C@@H](C)CC)C(C)C)C(=O)N[C@@H]([C@@H](C)O)C(=O)NCC(=O)N[C@@H](CO)C(=O)N4CCC[C@H]4C(=O)N[C@@H](CCC(N)=O)C(=O)N2)NC(=O)[C@H](CCCCN)NC(=O)CNC(=O)[C@H](Cc2ccccc2)NC(=O)[C@H](CCCNC(=N)N)NC(=O)[C@H](CCSC)NC(=O)CNC(=O)[C@H](C)NC(=O)[C@H](CC(=O)O)NC(=O)[C@H](CCCCN)NC(=O)[C@H](CSSC[C@@H](C(=O)N[C@H](C(=O)N2CCC[C@H]2C(=O)N[C@@H](CCCCN)C(=O)O)[C@@H](C)O)NC(=O)[C@H](Cc2c[nH]cn2)NC3=O)NC(=O)[C@@H]2CCCN2C(=O)[C@H](CCCCN)NC1=O` [AgTx2], for which, in assay [5], the Kd was 21500 ± 1200 pM.

`CC[C@H](C)[C@H](NC(=O)[C@@H](N)[C@@H](C)O)C(=O)N[C@H](C(=O)N[C@@H](CC(N)=O)C(=O)N[C@H](C(=O)N[C@@H](CCCCN)C(=O)N[C@H]1CSSC[C@@H]2NC(=O)[C@H](CCCCN)NC(=O)[C@H](C)NC(=O)CNC(=O)[C@H](C)NC(=O)[C@H](CO)NC(=O)[C@H](CCC(N)=O)NC(=O)CNC(=O)[C@H](Cc3ccccc3)NC(=O)[C@H](CCC(N)=O)NC(=O)[C@H](C)NC(=O)[C@H](CCCCN)NC(=O)[C@@H]3CSSC[C@@H](C(=O)N[C@@H](Cc4ccc(O)cc4)C(=O)N4CCC[C@H]4C(=O)N[C@@H](Cc4c[nH]cn4)C(=O)O)NC(=O)[C@H](CCCCN)NC(=O)[C@H](CSSC[C@H](NC(=O)[C@H](CCC(N)=O)NC(=O)[C@H](CCCCN)NC(=O)[C@@H]4CCCN4C(=O)[C@H](CO)NC(=O)[C@H]([C@@H](C)O)NC1=O)C(=O)N[C@@H](CC(C)C)C(=O)N1CCC[C@H]1C(=O)N1CCC[C@H]1C(=O)N3)NC(=O)[C@H](CCCCN)NC(=O)CNC(=O)[C@H](CC(N)=O)NC(=O)[C@H](CCSC)NC2=O)C(C)C)[C@@H](C)CC` [MgTx, margatoxin] (H-TIINVKCTSPKQCLPPCKAQFGQSAGAKCMNGKCKCYPH-OH; disulfide 7-29, 13-34, 17-36 (inferred); N-terminus and C-terminus assumed): the IC50 is 6 pM in assay [6] and 675 pM in assay [7]. The Kd in assay [8] was 300 ± 200 pM.
